Test results from patent US6794126B2, “Methods for preventing or inhibiting neuronal cell death” (The Trustees of Columbia University in the City of New York, priority 1996, dated 2004).
Entries after “also recorded” stand apart in the source; their conditions may differ. Residues, ends and D or L forms follow the SMILES beside them. *: point of attachment. Cbz = O=C(OCc1ccccc1)*; CH2F = FC*

Legend:
PC12 cells [1] = assay: PC12 cell survival after withdrawal of serum/NGF (trophic factor deprivation); format: cell-based, rat
Procedure: (§1) PC12 cells were grown as previously described (Greene and Tishcler, 1976) on rat-tail collagen-coated dishes in RPMI 1640 medium containing 5% fetal calf serum and 10% heat-inactivated horse serum (complete medium). NGF primed PC12 cells were grown for at least 7 days in RPMI 1640 medium plus 1% horse serum and NGF (100 ng/ml). For cell survival assays involving trophic factor deprivation, cells (either naive or NGF-pretreated) were extensively washed in serum-free RPMI 1640 medium and re-plated on fresh collagen-coated 24-well dishes as previously described (Rukenstein et al., 1991) in RPMI 1640 medium lacking serum or NGF. For SOD1 down-regulation survival assays, cells were re-plated in complete medium with V-ASOD1 (vector linked antisense oligonucleotide to SOD1, 50 nM). Various concentrations of ICE inhibitors were included in the medium as indicated. Numbers of viable cells per culture were determined by quantifying intact nuclei as previously described (Rukenstein et al., 1991). Counts were performed in triplicate and reported as means±SEM.

sympathetic neurons [2] = assay: Survival of cultured sympathetic neurons after NGF withdrawal (Example 1); format: cell-based, rat
Procedure: Sympathetic neuron cultures were prepared from 2 day old rat pups, as previously described (Ferrari et al., 1995). Cultures were grown in 24-well collagen coated dishes in RPMI 1640 medium plus 10% horse serum with mouse NGF (100 ng/ml). One day following plating, uridine and 5-fluorodeoxyuridine (10 μM each) were added to the cultures and left for three days to eliminate non-neuronal cells. On the sixth day following plating NGF was removed by washing the cultures three times with RPMI 1640 medium plus 10% horse serum, followed by the addition of medium containing anti-mouse NGF (1:200, Sigma) with or without ICE inhibitors. Each culture was scored, as previously described (Rydel and Greene, 1988), as numbers of living, phase-bright neurons at various times. Three replicate cultures were assessed for each condition and data were normalized to numbers of neurons present in each culture at the time of NGF withdrawal and reported as mean±SEM.

PC12 cells [3] = assay: PC12 cell survival after SOD1 down-regulation by V-ASOD1; format: cell-based, rat
Procedure: as §1

IL-1β = assay: Assay of IL-1β secreted by PC12 cells (ELISA); format: cell-based, rat; conditions: 24 h
Procedure: IL-1β was quantified by ELISA using the Intertest-1βX kit (Genzyme, Cambridge, Mass.). PC12 cells were grown as described above, on 24-well plates, in 500 μl of medium. After one day incubation, medium was removed and IL-1β measured following the manufacturer's instructions, and number of viable cells in each well quantified.

sympathetic neurons [4] = assay: Survival of sympathetic neurons exposed to UV irradiation; format: cell-based, rat; conditions: for survival of UV-treated sympathetic neurons: NGF present, pretreated before UV, flavopiridol 1 mM (sic, FIG. 6A), olomoucine 200 μM, isoolomoucine 200 μM, aphidicolin 10 μM; for concentration of maximal protection: UV-treated, day 1
Procedure: Cells were exposed to UV irradiation using the Stratolinker UV crosslinker (Stratagene®). Sympathetic neurons were exposed to 3×10^4 μJ while neuronal PC12 cells were exposed to […]. Each well was exposed with 200 μl of medium containing NGF with or without the appropriate drug. After irradiation 300 μl of additional medium containing NGF with or without drug was added.
(§2) The cells were plated onto collagen-coated 24-well dishes at a density of approximately 0.5 ganglia per well and maintained in RPMI 1640 medium supplemented with 10% heat-inactivated horse serum and 60 ng/ml mouse NGF for a period of three days prior to the survival experiment. A mixture of uridine and 5-fluorodeoxyuridine (10 mM each) was also added to eliminate non-neuronal cells on day two. No pretreatment with survival agent, unless otherwise noted, was necessary for effective survival of neurons exposed to AraC. In the case of UV irradiation, the neurons died quite rapidly. Accordingly, neuronal cultures were pretreated overnight (18 hr) with survival-promoting agents prior to UV irradiation. NGF deprivation was performed by washing with NGF-free medium and addition of anti-NGF antiserum as previously described (Park et al., 1996a). V-ASOD1 oligonucleotides, in conjunction with the nitric oxide generator, S-nitrosopenicillamine (SNAP; 100 μM) were added to the cultured sympathetic neurons as previously described (Troy et al., 1997). At appropriate times, the numbers of viable, phase bright neurons were determined by strip counting as previously described (Rydel and Greene; 1988). All experimental points are expressed relative to the original number of neurons present in each well and are reported as mean+/−SEM (n=3).

sympathetic neurons [5] = assay: Survival of sympathetic neurons treated with AraC; format: cell-based; conditions: for survival of AraC-treated sympathetic neurons: NGF present, flavopiridol 1 mM, olomoucine 200 mM (printed, FIG. 8), isoolomoucine 200 μM, aphidicolin 10 μM; for maximal concentration required to protect from AraC: day 3; for toxicity of the CDK inhibitors to sympathetic neurons: beyond five days, even without AraC treatment
Procedure: A mixture of uridine and 5-fluorodeoxyuridine (10 mM each) was also added to eliminate non-neuronal cells on day two. No pretreatment with survival agent, unless otherwise noted, was necessary for effective survival of neurons exposed to AraC. In the case of UV irradiation, the neurons died quite rapidly. Accordingly, neuronal cultures were pretreated overnight (18 hr) with survival-promoting agents prior to UV irradiation. […] All experimental points are expressed relative to the original number of neurons present in each well and are reported as mean+/−SEM (n=3).

sympathetic neurons [6] = assay: Survival of sympathetic neurons depleted of SOD1 (V-ASOD1 plus SNAP); format: cell-based, rat
Procedure: as §2

sympathetic neurons [7] = assay: Survival of sympathetic neurons deprived of NGF (Example 2); format: cell-based, rat; conditions: for death of sympathetic neurons deprived of NGF: CDK inhibitors, same experiments as SOD1 depletion (FIG. 10)
Procedure: as §2

sympathetic neurons [8] = assay: Survival of sympathetic neurons exposed to camptothecin; format: cell-based, rat; conditions: V-linked peptides
neuronal PC12 cells = assay: Survival of neuronal PC12 cells depleted of SOD1 (Example 2); format: cell-based, rat
Procedure: Naive PC12 cells were cultured and passaged as previously described (Greene and Tischler, 1976). Neuronally-differentiated PC12 cells were generated by exposing PC12 cells to NGF in serum-free RPMI 1640 medium for 8-9 days. For survival experiments, neuronally-differentiated PC12 cells were plated onto collagen-coated 24-well tissue culture dishes at a density of approximately 2×10^5 cells per well. Neuronally-differentiated PC12 cells were cultured in serum-free RPMI 1640 medium containing NGF (100 ng/ml) throughout the course of survival experiments. At appropriate times of culture under the conditions described in the text, cells were lysed and the numbers of viable cells was evaluated as previously described (Rukenstein et al., 1991). All experimental points are expressed as a percentage of cells plated on day 0 and are reported as mean +/−SEM (n=3).

proliferating PC12 cells = proliferating PC12 cells (Park et al., 1996a); cited from earlier work

Molecule: CC[C@H](C)[C@H](N)C(=O)N[C@@H](CCC(N)=O)C(=O)N[C@@H](C)C(=O)N[C@@H](CSSC[C@H](N)C(=O)N[C@@H](CCCNC(=N)N)C(=O)N[C@@H](CCC(N)=O)C(=O)N[C@H](C(=O)N[C@@H](CCCCN)C(=O)N[C@H](C(=O)N[C@@H](Cc1c[nH]c2ccccc12)C(=O)N[C@@H](Cc1ccccc1)C(=O)N[C@@H](CCC(N)=O)C(=O)N[C@@H](CC(N)=O)C(=O)N[C@@H](CCCNC(=N)N)C(=O)N[C@@H](CCCNC(=N)N)C(=O)N[C@@H](CCSC)C(=O)N[C@@H](CCCCN)C(=O)N[C@@H](Cc1c[nH]c2ccccc12)C(=O)N[C@@H](CCCCN)C(=O)N[C@@H](CCCCN)C(=O)O)[C@@H](C)CC)[C@@H](C)CC)C(=O)N[C@@H](CCCNC(=N)N)C(=O)NCC(=O)O [V-ICEinh]
- time of partial protection (PC12 cells [1]; naive and primed PC12 cells, serum/NGF withdrawal): at least 8 days
- peptide concentration giving complete protection from death (PC12 cells [1]; naive and primed PC12 cells, serum/NGF withdrawal, 24 hours): 200 to 400 nM
- time for which death was retarded (sympathetic neurons [2]; 50 nM, NGF-deprived): at least 6 days
- time of complete protection from death (sympathetic neurons [2]; 50 nM, NGF-deprived): 3 days
- effect on the capacity of ASOD1 to lower cellular SOD1 (PC12 cells [3]): no effect
- dose required for maximal protection (PC12 cells [3]; V-ASOD1 50 nM, one day): 0.025 to 0.05 µM
- protection from death induced by down-regulation of SOD1 (PC12 cells [3]; naive and NGF-treated PC12 cells, V-ASOD1 50 nM, one day): protects
- increase in IL-1β secretion per cell after SOD1 down-regulation (IL-1β; V-ICEinh 25 nM for V-ASOD1 treatment): blocked
- death of sympathetic neurons exposed to UV (sympathetic neurons [4]; 200 nM, pretreated 18 hr): blocked death
- death of AraC-treated sympathetic neurons (sympathetic neurons [5]; 200 nM, AraC 100 μM): blocked death
- death of sympathetic neurons depleted of SOD1 (sympathetic neurons [6]; V-linked peptides): blocked death
- protection from NGF deprivation (sympathetic neurons [7]; 200 nM, pretreated 18 hr): protected
- death of sympathetic neurons exposed to camptothecin (sympathetic neurons [8]): blocked death

Molecule: COC(=O)C[C@H](NC(=O)[C@H](C)NC(=O)[C@@H](NC(=O)OCc1ccccc1)C(C)C)C(=O)CF [ZVAD-FMK, ZVAD-fluoromethylketone] (Cbz-Val-Ala-Asp(OMe)-CH2F)
- concentration required to be fully protective (PC12 cells [1]; serum withdrawal, one day): 50 µM
- protection from NGF deprivation (sympathetic neurons [2]; 100 μM): protected
- dose required for maximal protection (PC12 cells [3]; V-ASOD1 50 nM, one day): 6 µM
- survival of sympathetic cultures exposed to UV irradiation (sympathetic neurons [4]; 50 μM, pretreated 16 hr): ineffective
- survival of sympathetic cultures exposed to AraC (sympathetic neurons [5]; 50 μM, AraC 100 μM): ineffective
- protection of sympathetic neurons depleted of SOD1 (sympathetic neurons [6]; 50 μM, exposed to nitric oxide generators): protected
- protection from death due to NGF-depletion (sympathetic neurons [7]; 50 μM): protects

Molecule: CC(C)[C@H](NC(=O)[C@H](Cc1ccc(O)cc1)NC(=O)OCc1ccccc1)C(=O)N[C@@H](C)C(=O)N[C@@H](CC(=O)O)C(=O)CCl [ZYVAD-CMK, ZYVAD-chloromethylketone]
- protection from trophic factor withdrawal (PC12 cells [1]; 250 μM): only partially effective; also recorded: partial protection
- protection from NGF deprivation (sympathetic neurons [2]; 250 μM): no effect
- protection from SOD1 down-regulation (PC12 cells [3]; 50 μM): full protection

Molecule: CC(=O)N[C@@H](Cc1ccc(O)cc1)C(=O)N[C@H](C(=O)N[C@@H](C)C(=O)N[C@@H](CC(=O)O)C(=O)CCl)C(C)C [acYVAD-cmk]
- death evoked by SOD1 depletion (sympathetic neurons [6]; 250 μM, two days, ASOD1 with SNAP 100 μM): blocks death
- death due to NGF deprivation (sympathetic neurons [7]; 250 μM, two days): not death due to NGF deprivation

Molecule: C[C@@]1(CO)[C@H](O)CC[C@@]2(C)[C@H]1CC[C@H]1C[C@@H]3C[C@@]12CC[C@]3(O)CO [aphidicolin]
- survival of UV-treated sympathetic neurons (sympathetic neurons [4]): failed to block death
- survival of AraC-treated sympathetic neurons (sympathetic neurons [5]; AraC 100 μM): failed to block death

Molecule: CN1CC[C@H](c2c(O)cc(O)c3c(=O)cc(-c4ccccc4Cl)oc23)[C@H](O)C1 [flavopiridol]
- survival of UV-treated sympathetic neurons (sympathetic neurons [4]): effectively promoted survival
- concentration of maximal protection (sympathetic neurons [4]): 1 to 3 µM
- survival of AraC-treated sympathetic neurons (sympathetic neurons [5]; AraC 100 μM): quite effectively promoted long term survival
- maximal concentration required to protect from AraC (sympathetic neurons [5]; AraC 100 μM): 1 µM
- toxicity of the CDK inhibitors to sympathetic neurons (sympathetic neurons [5]): toxicity
- protection of sympathetic neurons depleted of SOD1 (sympathetic neurons [6]; ASOD1 50 nM with SNAP 100 μM): neither flavopiridol nor olomoucine protected
- death of sympathetic neurons deprived of NGF (sympathetic neurons [7]): effectively blocked the death
- death of neuronal PC12 cells depleted of SOD1 (neuronal PC12 cells): failed to inhibit death
- minimum concentration required to fully inhibit DNA synthesis (proliferating PC12 cells): 1 µM

Molecule: Cn1cnc2nc(NCCO)nc(NCc3ccccc3)c21 [isoolomoucine]
- survival of UV-treated sympathetic neurons (sympathetic neurons [4]): nearly ineffective
- survival of AraC-treated sympathetic neurons (sympathetic neurons [5]; AraC 100 μM): ineffective

Molecule: Cn1cnc2c(NCc3ccccc3)nc(NCCO)nc21 [olomoucine, 2-(2-hydroxyethylamino)-6-benzylamino-9-methylpurine]
- survival of UV-treated sympathetic neurons (sympathetic neurons [4]): effectively promoted survival
- concentration of maximal protection (sympathetic neurons [4]): 200 µM
- survival of AraC-treated sympathetic neurons (sympathetic neurons [5]; AraC 100 μM): quite effectively promoted long term survival
- maximal concentration required to protect from AraC (sympathetic neurons [5]; AraC 100 μM): 200 µM
- toxicity of the CDK inhibitors to sympathetic neurons (sympathetic neurons [5]): toxicity
- protection of sympathetic neurons depleted of SOD1 (sympathetic neurons [6]; ASOD1 50 nM with SNAP 100 μM): neither flavopiridol nor olomoucine protected
- death of sympathetic neurons deprived of NGF (sympathetic neurons [7]): effectively blocked the death
- death of neuronal PC12 cells depleted of SOD1 (neuronal PC12 cells): failed to inhibit death
- minimum concentration required to fully inhibit DNA synthesis (proliferating PC12 cells): 200 µM

B1: rmIL-1Ra: IL-1 receptor antagonist (protein, UniProt P25085 27-178, looked up)
Interleukin-1 receptor …: RPSGKRPCKMQAFRIWDTNQKTFYLRNNQLIAGYLQGPNIKLEEKIDMVPIDLHSVFLGIHGGKLCLSCAKSGDDIKLQLEEVNITDLSKNKEEDKRFTFIRSEKGPTTSFESAACPGWFLCTTLEADRPVSLTNTPEEPLIVTKFYFQEDQ
- protection from trophic factor withdrawal (PC12 cells [1]; 10,000 ng/ml, one day): improved survival under these conditions only modestly
- suppression of cell death of V-ASOD1 treated PC12 cells (PC12 cells [3]; 100 ng/ml): completely suppressed cell death

B2: NGF: nerve growth factor (mouse NGF) (protein, UniProt P01139 122-241, looked up)
Beta-nerve growth factor: SSTHPVFHMGEFSVCDSVSVWVGDKTTATDIKGKEVTVLAEVNINNSVFRQYFFETKCRASNPVESGCRGIDSKHWNSYCTTTHTFVKALTTDEKQAAWRFIRIDTACVCVLSRKATRRG
- increase in IL-1β secretion (IL-1β; cells treated with NGF): 4 fold
